Results: patent US20040175378A1, “Selected antibody compositions and methods for binding to aminophospholipids” (Board of Regents, The University of Texas System, priority 2002, published 2004)

B1: IL-1α: recombinant murine interleukin-1 alpha (protein, UniProt P01582 115-270, looked up)
Interleukin-1 alpha: SAPYTYQSDLRYKLMKLVRQKFVMNDSLNQTIYQDVDKHYLSTTWLNDLQQEVKFDMYAYSSGGDDSKYPVTLKISDSQLFVSAQGEDQPVLLKELPETPKLITGSETDLIFFWKSINSKNYFTSAAYPELFIATKEQSRVHLARGLPSMTDFQIS
B2: IL-1β: recombinant murine interleukin-1 beta (protein, UniProt P10749 118-269, looked up)
Interleukin-1 beta: VPIRQLHYRLRDEQQKSLVLSDPYELKALHLNGQNINQQVIFSMSFVQGEPSNDKIPVALGLKGKNLYLSCVMKDGTPTLQLESVDPKQYPKKKMEKRFVFNKIEVKSKVEFESAEFPNWYISTSQAEHKPVFLGNNSGQDIIDFTMESVSS

Columns and labels:
bEnd.3 endothelial cells = experiment: PS translocation and viability of bEnd.3 cells treated with H2O2; details: low levels of H2O2
HUVEC and HMVEC = experiment: Induction of PS exposure on endothelial cells, FACS of 3G4 binding; format: cell-based, Human; details: 10 nM, 24 hrs
Method: (§1) FIG. 24A and FIG. 24B. Induction of PS exposure on endothelial cells by docetaxel. Human umbilical vein endothelial cells (HUVEC) and human microvessel endothelial cells (HMVEC) were treated with 10 nM of docetaxel for 24 hrs. […] The cells were then washed twice, FITC labeled goat anti-mouse IgG was added and the cells incubated for a further 30 mins. on ice. The cells were then washed and analyzed by FACS using a FACSCalibur cytometer (Becton-Dickinson, San Jose, Calif.) with CellQuest acquisition software.
The induction of PS exposure on endothelial cells by subclinical concentrations of docetaxel was examined in vitro by FACS analysis. Human umbilical vein endothelial cells (HUVEC) and human microvessel endothelial cells (HMVEC) were treated with 10 nM of docetaxel for 24 hrs and examined by FACS. […] Docetaxel incubations for 48 and 72 hrs were also conducted.

[1] = tested on: 3LL, Colo26 and MDA-MB-435 cells; experiment: Induction of PS exposure on tumor cell lines, FACS of 3G4 binding; format: cell-based; details: 10 nM, 24 hrs, Colo26, MDA-MB-435
Method: as §1, with “25A, FIG. 25B” for “24A”, “25C.” for “24B.”, “tumor cell lines” for “endothelial cells”, “Mouse lewis lung carcinoma 3LL, mouse colon carcinoma Colo26” for “Human umbilical vein endothelial cells (HUVEC)”, “breast cancer MDA-MB-435” for “microvessel endothelial”, “cells” for “cells (HMVEC)”
The in vitro induction of PS exposure by subclinical concentrations of docetaxel was also examined by FACS analysis using a panel of tumor cell lines. Mouse lewis lung carcinoma 3LL, mouse colon carcinoma Colo26 and human breast cancer MDA-MB-435 cells were treated with 10 nM of docetaxel for 24 hrs and examined by FACS. […] Docetaxel incubations for 48 and 72 hrs were also conducted.

bEnd.3 cells = experiment: PS exposure by 125I-annexin V binding; format: cell-based, Mouse; details: bEnd.3, 24 h
Method: (§2) All reagents were diluted in medium containing 10% serum and incubated with the cells at 37° C. for 24 h.
(§3) To study the effect of hypoxia, cells were seeded on 24 well plates and were incubated in a humidified normoxic atmosphere (21% O2, 5% CO2) for 48 h before being transferred to a humidified hypoxic atmosphere (1% O2, 5% CO2, 94% N2) in a sealed chamber (Billups Rothenberg Inc., Del Mar, Calif.). Cells were incubated in a hypoxic chamber for 24 h at 37° C. and were then returned to a normoxic environment for 4 h at 37° C. The cells were compared to a parallel culture from an identical passage, seeded on the same day and maintained entirely under normoxic conditions. In some studies, IL-1α (10 ng/ml) and TNFα (20 ng/ml) were added to the medium before transfer to the hypoxic chamber.
(§4) After treatment with the reagents described above, treated and control cells were incubated with 7.1 pmoles of ^125I-labeled annexin V (200 μl/well) in the binding buffer. After 2 h incubation at room temperature, cells were washed extensively and dissolved in 0.5 M of NaOH. The entire volume of 0.5 ml was transferred to plastic tubes and counted in a gamma counter. Non-specific binding was determined in the presence of 5 mM EDTA and was subtracted from experimental values. The results were expressed as net pmoles of cell-bound annexin V, normalized per 1×10^6 cells.
(§5) Maximal binding of annexin V was determined on cells simultaneously treated with actinomycin D and TNFα (50 ng/ml of each component). As has been previously reported, these agents cause apoptosis and PS exposure in 90-100% of endothelial cells (Lucas et al., 1998). Basal binding of ^125I-annexin V to untreated cells was determined in the presence of medium with 10% serum. The amount of ^125I-annexin V that bound to the untreated cultures was subtracted from that in the treated cultures. Exposure of PS was calculated according to the following formula: cell-bound annexin V (pmoles) under experimental conditions divided by maximal annexin V binding (pmoles), multiplied by 100. Each study was performed in duplicate and was performed at least three times. Mean values were calculated. The SE of the mean values from three separate experiments was less than 5%.

ABAE cells = experiment: PS exposure by 125I-annexin V binding; format: cell-based, bovine; details: 24 h
Method: as §2, §3, §4, §5

Molecule	^125I-Annexin V (% of Max binding) (bEnd.3 cells; 20 ng/ml)	^125I-Annexin V (% of Max binding) (ABAE cells; 20 ng/ml)	further results
OO [Hydrogen peroxide, hydrogen peroxide]	–	–	cell viability (bEnd.3 endothelial cells): 95%
CC(=O)O[C@@]12CO[C@@H]1C[C@H](O)[C@@]1(C)C(=O)[C@H](O)C3=C(C)[C@@H](OC(=O)[C@H](O)[C@@H](NC(=O)OC(C)(C)C)c4ccccc4)C[C@@](O)([C@@H](OC(=O)c4ccccc4)[C@H]21)C3(C)C [docetaxel]	–	–	3G4 binding as compared to untreated cells (HUVEC and HMVEC): significant increase in 3G4 binding; 3G4 binding as compared with untreated cells [1]: significant increase in 3G4 binding
FGF-2: human fibroblast growth factor-2	0%	0%	–
IL-6: interleukin-6	0%	0%	–
IL-8: interleukin-8	0%	0%	–
IL-10: interleukin-10	0%	0%	–
Interferon	–	–	^125I-Annexin V (% of Max binding) (bEnd.3 cells; 40 ng/ml): 2.8%; ^125I-Annexin V (% of Max binding) (ABAE cells; 40 ng/ml): 8.6%
Scatter factor: recombinant hepatocyte growth factor	–	–	^125I-Annexin V (% of Max binding) (bEnd.3 cells; 40 ng/ml): 0%; ^125I-Annexin V (% of Max binding) (ABAE cells; 40 ng/ml): 0%
TGF β1: growth factor	0%	0%	–
TNFα	13.7%	7.4%	–
Thrombin	–	–	^125I-Annexin V (% of Max binding) (bEnd.3 cells; 50 nM): 17.4%; ^125I-Annexin V (% of Max binding) (ABAE cells; 50 nM): 8.8%
VEGF	0%	0%	–
B1	–	–	^125I-Annexin V (% of Max binding) (bEnd.3 cells; 10 ng/ml): 7.5%; ^125I-Annexin V (% of Max binding) (ABAE cells; 10 ng/ml): 6.4%
B2	–	–	^125I-Annexin V (% of Max binding) (bEnd.3 cells; 10 ng/ml): 5.5%; ^125I-Annexin V (% of Max binding) (ABAE cells; 10 ng/ml): 5.8%
